Results from ChEMBL document CHEMBL3885881, “DrugMatrix”.

Species: Rattus norvegicus
Format: toxicity, organism-based, Sprague-Dawley
Details: in vivo, po, route oral GAVAGE, […]; for ABSOLUTE EOSINOPHIL / ABSOLUTE LYMPHOCYTE / ABSOLUTE MONOCYTE / ABSOLUTE SEGMENTED NEUTROPHIL / BASOPHIL / EOSINOPHIL / ERYTHROCYTE COUNT / HEMATOCRIT / HEMOGLOBIN / LEUKOCYTE COUNT / LYMPHOCYTE / MEAN CORPUSCULAR HEMOGLOBIN / MEAN CORPUSCULAR HEMOGLOBIN CONCENTRATION / MEAN CORPUSCULAR VOLUME / MONOCYTE / NEUTROPHIL / NUCLEATED RED BLOOD CELLS / PLATELET COUNT: tissue Blood; for ALANINE AMINOTRANSFERASE / ALBUMIN / ALKALINE PHOSPHATASE / ASPARTATE AMINOTRANSFERASE / BLOOD UREA NITROGEN / CARBON DIOXIDE / CHLORIDE / CHOLESTEROL / CREATINE PHOSPHOKINASE / CREATININE / GLUCOSE / LACTATE DEHYDROGENASE / LIPASE / PHOSPHORUS / POTASSIUM / SODIUM / TOTAL BILIRUBIN / TOTAL PROTEIN / URIC ACID: tissue Plasma
[1] = 0 mg/kg, 6 h, vehicle control, dose level Control, time 0.25 day
[2] = 0 mg/kg, 24 h, vehicle control, dose level Control, time 1 day
[3] = 100 mg/kg, 6 h, dose level Low, time 0.25 day
[4] = 100 mg/kg, 24 h, dose level Low, time 1 day

Description: DrugMatrix - Regimen: Single

## CC(C)(Oc1ccc(CCNC(=O)c2ccc(Cl)cc2)cc1)C(=O)O [BEZAFIBRATE]
[1]
  ABSOLUTE EOSINOPHIL: 0 CELLS/uL
  ABSOLUTE LYMPHOCYTE: 8631 CELLS/uL
  ABSOLUTE MONOCYTE: 171.17 CELLS/uL
  ABSOLUTE SEGMENTED NEUTROPHIL: 1214.5 CELLS/uL
  BASOPHIL: 0%
  EOSINOPHIL: 0%
  ERYTHROCYTE COUNT: 5.42 x10E6/uL
  HEMATOCRIT: 34.7%
  HEMOGLOBIN: 13.67 G/DL
  LEUKOCYTE COUNT: 10.02 x10E3/uL
  LYMPHOCYTE: 86.17%
  MEAN CORPUSCULAR HEMOGLOBIN: 25.27 pg
  MEAN CORPUSCULAR HEMOGLOBIN CONCENTRATION: 39.42 G/DL
  MEAN CORPUSCULAR VOLUME: 64.12 fL
  MONOCYTE: 1.67%
  NEUTROPHIL: 12.17%
  NUCLEATED RED BLOOD CELLS: 0 /100WBC
  PLATELET COUNT: 1050 x10E3/uL
  ALANINE AMINOTRANSFERASE: 61 u/L
  ALBUMIN: 4.67 G/DL
  ALKALINE PHOSPHATASE: 312.5 u/L
  ASPARTATE AMINOTRANSFERASE: 117.5 u/L
  BLOOD UREA NITROGEN: 8.67 mg/dL
  CARBON DIOXIDE: 26.33 mmol/L
  CHLORIDE: 100.5 MEQ/L
  CHOLESTEROL: 72 mg/dL
  CREATINE PHOSPHOKINASE: 283.33 u/L
  CREATININE: 0.28 mg/dL
  GLUCOSE: 172 mg/dL
  LACTATE DEHYDROGENASE: 95.33 u/L
  LIPASE: 10.17 u/L
  PHOSPHORUS: 9.9 mg/dL
  POTASSIUM: 5.75 MEQ/L
  SODIUM: 142.4 MEQ/L
  TOTAL BILIRUBIN: 0.3 mg/dL
  TOTAL PROTEIN: 5.43 G/DL
  URIC ACID: 0.73 mg/dL
[2]
  ABSOLUTE EOSINOPHIL: 90.83 CELLS/uL
  ABSOLUTE LYMPHOCYTE: 14725.17 CELLS/uL
  ABSOLUTE MONOCYTE: 220 CELLS/uL
  ABSOLUTE SEGMENTED NEUTROPHIL: 1080.67 CELLS/uL
  BASOPHIL: 0%
  EOSINOPHIL: 0.67%
  ERYTHROCYTE COUNT: 5.3 x10E6/uL
  HEMATOCRIT: 33.4%
  HEMOGLOBIN: 13.4 G/DL
  LEUKOCYTE COUNT: 16.12 x10E3/uL
  LYMPHOCYTE: 91.17%
  MEAN CORPUSCULAR HEMOGLOBIN: 25.3 pg
  MEAN CORPUSCULAR HEMOGLOBIN CONCENTRATION: 40.12 G/DL
  MEAN CORPUSCULAR VOLUME: 63.05 fL
  MONOCYTE: 1.5%
  NEUTROPHIL: 6.67%
  NUCLEATED RED BLOOD CELLS: 0 /100WBC
  PLATELET COUNT: 1062 x10E3/uL
  ALANINE AMINOTRANSFERASE: 69 u/L
  ALBUMIN: 4.33 G/DL
  ALKALINE PHOSPHATASE: 269 u/L
  ASPARTATE AMINOTRANSFERASE: 83.67 u/L
  BLOOD UREA NITROGEN: 14 mg/dL
  CARBON DIOXIDE: 29 mmol/L
  CHLORIDE: 100.83 MEQ/L
  CHOLESTEROL: 66.67 mg/dL
  CREATINE PHOSPHOKINASE: 355 u/L
  CREATININE: 0.18 mg/dL
  GLUCOSE: 161.33 mg/dL
  LACTATE DEHYDROGENASE: 123.33 u/L
  LIPASE: 10.67 u/L
  PHOSPHORUS: 8.83 mg/dL
  POTASSIUM: 6.06 MEQ/L
  SODIUM: 142.45 MEQ/L
  TOTAL BILIRUBIN: 0.2 mg/dL
  TOTAL PROTEIN: 5.72 G/DL
  URIC ACID: 1.27 mg/dL
[3]
  ABSOLUTE EOSINOPHIL: 94.83 CELLS/uL
  ABSOLUTE LYMPHOCYTE: 14637.67 CELLS/uL
  ABSOLUTE MONOCYTE: 333.5 CELLS/uL
  ABSOLUTE SEGMENTED NEUTROPHIL: 1884 CELLS/uL
  BASOPHIL: 0%
  EOSINOPHIL: 0.5%
  ERYTHROCYTE COUNT: 5.71 x10E6/uL
  HEMATOCRIT: 36.27%
  HEMOGLOBIN: 14.22 G/DL
  LEUKOCYTE COUNT: 16.95 x10E3/uL
  LYMPHOCYTE: 86.67%
  MEAN CORPUSCULAR HEMOGLOBIN: 24.97 pg
  MEAN CORPUSCULAR HEMOGLOBIN CONCENTRATION: 39.22 G/DL
  MEAN CORPUSCULAR VOLUME: 63.68 fL
  MONOCYTE: 2%
  NEUTROPHIL: 10.83%
  NUCLEATED RED BLOOD CELLS: 0 /100WBC
  PLATELET COUNT: 1045.83 x10E3/uL
  ALANINE AMINOTRANSFERASE: 67.33 u/L
  ALBUMIN: 4.53 G/DL
  ALKALINE PHOSPHATASE: 339 u/L
  ASPARTATE AMINOTRANSFERASE: 90 u/L
  BLOOD UREA NITROGEN: 8.17 mg/dL
  CARBON DIOXIDE: 18.33 mmol/L
  CHLORIDE: 102.17 MEQ/L
  CHOLESTEROL: 75.5 mg/dL
  CREATINE PHOSPHOKINASE: 329.33 u/L
  CREATININE: 0.19 mg/dL
  GLUCOSE: 163 mg/dL
  LACTATE DEHYDROGENASE: 253 u/L
  LIPASE: 10.17 u/L
  PHOSPHORUS: 12.57 mg/dL
  POTASSIUM: 5.78 MEQ/L
  SODIUM: 143.17 MEQ/L
  TOTAL BILIRUBIN: 0.32 mg/dL
  TOTAL PROTEIN: 6.1 G/DL
  URIC ACID: 1.68 mg/dL
[4]
  ABSOLUTE EOSINOPHIL: 44 CELLS/uL
  ABSOLUTE LYMPHOCYTE: 13234.17 CELLS/uL
  ABSOLUTE MONOCYTE: 357.67 CELLS/uL
  ABSOLUTE SEGMENTED NEUTROPHIL: 1847.5 CELLS/uL
  BASOPHIL: 0%
  EOSINOPHIL: 0.33%
  ERYTHROCYTE COUNT: 5.35 x10E6/uL
  HEMATOCRIT: 34.67%
  HEMOGLOBIN: 13.47 G/DL
  LEUKOCYTE COUNT: 15.48 x10E3/uL
  LYMPHOCYTE: 85%
  MEAN CORPUSCULAR HEMOGLOBIN: 25.28 pg
  MEAN CORPUSCULAR HEMOGLOBIN CONCENTRATION: 38.95 G/DL
  MEAN CORPUSCULAR VOLUME: 64.9 fL
  MONOCYTE: 2.33%
  NEUTROPHIL: 12.33%
  NUCLEATED RED BLOOD CELLS: 0.17 /100WBC
  PLATELET COUNT: 977.33 x10E3/uL
  ALANINE AMINOTRANSFERASE: 83.17 u/L
  ALBUMIN: 4.5 G/DL
  ALKALINE PHOSPHATASE: 333 u/L
  ASPARTATE AMINOTRANSFERASE: 86.33 u/L
  BLOOD UREA NITROGEN: 13 mg/dL
  CARBON DIOXIDE: 28.83 mmol/L
  CHLORIDE: 101.67 MEQ/L
  CHOLESTEROL: 43.5 mg/dL
  CREATINE PHOSPHOKINASE: 192.33 u/L
  CREATININE: 0.21 mg/dL
  GLUCOSE: 143.33 mg/dL
  LACTATE DEHYDROGENASE: 106.5 u/L
  LIPASE: 10.17 u/L
  PHOSPHORUS: 9.88 mg/dL
  POTASSIUM: 6.29 MEQ/L
  SODIUM: 146.55 MEQ/L
  TOTAL BILIRUBIN: 0.17 mg/dL
  TOTAL PROTEIN: 5.77 G/DL
  URIC ACID: 1.02 mg/dL
